Consider 5 molecules from article PMC5424495.

A short description of data set [1]: reversible transimination ring closure of 1,3-distal diimine cone-calix[4]arene (tetrakis(2-ethoxyethoxy)) with alpha,omega-diaminoalkanes H2N(CH2)nNH2, displacing hexylamine chain stopper; no catalyst; thermodynamic equilibrium in dynamic library. The following applies: the molecule shown is the open-chain precursor, CD3CN, 2.5 mM, 25.0 °C.
A short description of data set [2]: same transimination equilibrium: L1 (bis-hexylimine calix[4]arene) + diamine 3 = C1 + 2 hexylamine. The settings on record: the molecule shown is the open-chain precursor, CD3CN, 2.5 mM, 25.0 °C, 2 steps.

In data set [1] (17-membered ring), `CCCCCC/N=C/c1cc2c(OCCOCC)c(c1)Cc1cccc(c1OCCOCC)Cc1cc(/C=N/CCN)cc(c1OCCOCC)Cc1cccc(c1OCCOCC)C2` [C1a (diamine 3a, n=2)] showed a ring closure, effective molarity of 0.05 M. Also, in data set [2] (17-membered ring), the ring closure, K came out at 0.025 M.
In data set [1] (21-membered ring), `CCCCCC/N=C/c1cc2c(OCCOCC)c(c1)Cc1cccc(c1OCCOCC)Cc1cc(/C=N/CCCCCCN)cc(c1OCCOCC)Cc1cccc(c1OCCOCC)C2` [C1e (diamine 3e, n=6)] registered a ring closure, effective molarity of 0.01 M. Besides, the ring closure, K in data set [2] (21-membered ring) was found to be 0.026 M.
Molecule `CCCCCC/N=C/c1cc2c(OCCOCC)c(c1)Cc1cccc(c1OCCOCC)Cc1cc(/C=N/CCCN)cc(c1OCCOCC)Cc1cccc(c1OCCOCC)C2` [C1b (diamine 3b, n=3)] gave a ring closure, effective molarity in data set [1] (18-membered ring) of 0.5 M. Moreover, in data set [2] (18-membered ring), the ring closure, K was determined as 0.9 M.
Regarding `CCCCCC/N=C/c1cc2c(OCCOCC)c(c1)Cc1cccc(c1OCCOCC)Cc1cc(/C=N/CCCCN)cc(c1OCCOCC)Cc1cccc(c1OCCOCC)C2` [C1c (diamine 3c, n=4)], the ring closure, effective molarity in data set [1] (19-membered ring) came out at 0.01 M. Also, in data set [2] (19-membered ring), the ring closure, K is 0.03 M.
In turn, `CCCCCC/N=C/c1cc2c(OCCOCC)c(c1)Cc1cccc(c1OCCOCC)Cc1cc(/C=N/CCCCCN)cc(c1OCCOCC)Cc1cccc(c1OCCOCC)C2` [C1d (diamine 3d, n=5)] yielded a ring closure, effective molarity in data set [1] (20-membered ring) of 1.5 M. Also, in data set [2] (20-membered ring), the ring closure, K worked out at 3 M.
